The record followed here is US20160317661A1, “DERMAL AND/OR TRANSDERMAL PHARMACEUTICAL COMPOSITION CONTAINING A TERPENOID COMPOUND” (EPINAMICS GMBH, priority 2013, published 2016).

Converted amounts (≈) assume the structure as drawn. Structures can show the parent of a compound that is named as a salt.

Data set [1] in a line: Solubilities of active ingredients in carvacrol or carvacrol-containing (or thymol) formulations. Format: physicochemical. From the text: The mixing ratios are always given as volume proportions. Liqui-Patch® are formulations of ready-to-use mixtures of polymers and other additives for making transdermal systems and are obtainable from the company epinamics GmbH. In the formulation employed here, Liqui-Patch® contains the following components: mixture of 10 g triethyl citrate, 100 g water (demineralized or medical), 100 g DynamX®, 790 g ethanol.

A short description of data set [2]: Solubilities of clotrimazole and testosterone in different solvents. Particulars: for Solubilities in solvents with compounds employed according to the invention, compared with other solvents: Table II; for solubility: organic solvent or mixture.
Data set [3] in a line: Volatility of carvacrol with different admixtures (spots on glass plate at 35° C., recovery). Format: physicochemical. The conditions noted are these: for V.C. 30 min. (volatile carvacrol) / V.C. 3 h (volatile carvacrol): carvacrol 20%, remainder ethanol, 35° C. Here is the method:
For testing whether carvacrol is suitable for transdermal systems or whether carvacrol is contained sufficiently long in transdermal systems, the volatility was investigated with different admixtures. The volatility is important, in order to keep the active ingredients sufficiently long in solution in the film.
For the measurement, two spots of 5 μl of each formulation, containing 1 mg carvacrol, were applied per point of time on a glass plate kept at 35° C. Two spots of a respective point of time (30 min. and 3 h after application of the spot) were wiped off with a cotton applicator. The amount of wiped-off carvacrol was determined. The difference to 100% intended recovery rate is the volatile carvacrol. The abbreviation V. refers to “volatile”, the abbreviation C. refers to carvacrol. The share of carvacrol is always 20%, the remainder relative to the sum of carvacrol and the additive is ethanol. Amounts are given in vol.-%.

Where [4] appears, read: solvent: Carvacrol/Liqui-Patch (1:1), volume proportions.
[5] abbreviates: additive Ethylmethyl ketone 10%.
Where [6] appears, read: additive Ethylmethyl ketone 20%.
Setting [7] is: additive Isopropyl myristate 10%.
Where [8] appears, read: additive Isopropyl myristate 20%.
The mark [9] stands for this setting: additive Propylene carbonate 10%.
Where [10] appears, read: additive Propylene carbonate 20%.
Where [11] appears, read: additive Propylene glycol 10%/menthol 5%.
[12] abbreviates: additive Propylene glycol 20%/menthol 10%.

In data set [1] (solvent: Carvacrol), `O=c1[nH]cc(F)c(=O)[nH]1` [5-Fluorouracil] displayed a Dissolved amount of 25 mg/mL.

The molecule `Nc1cc(=O)[nH]c(=O)[nH]1` [6-Aminouracil] displayed a Dissolved amount in data set [1] (solvent: Carvacrol) of less than 50 mg/mL.

On to `Oc1cccc2cccnc12` [8-Hydroxyquinoline], for which, in data set [1] (solvent: Carvacrol), the Dissolved amount is greater than 100 mg/mL.

As to `C=C(c1ccc(C(=O)O)cc1)c1cc2c(cc1C)C(C)(C)CCC2(C)C` [Bexarotene], the Dissolved amount worked out at 60 mg/mL in data set [1] (solvent: Carvacrol) and 30 mg/mL in data set [1] (setting [4]).

As to `Clc1ccccc1C(c1ccccc1)(c1ccccc1)n1ccnc1` [Clotrimazole], the Dissolved amount in data set [1] (solvent: Carvacrol) amounted to 410 mg/mL. Moreover, the “Solubilities in solvents with compounds employed according to the invention, compared with other solvents” value in data set [2] is “considerably higher”.

`O=c1ccc2ccccc2o1` [Coumarin]: the Dissolved amount in data set [1] (solvent: Carvacrol) is greater than 200 mg/mL.

In data set [1] (solvent: Carvacrol), `O=C(O)c1cc(=O)c2c(OCC(O)COc3cccc4oc(C(=O)O)cc(=O)c34)cccc2o1` [Cromoglicic acid-Na, Cromoglicic acid disodium salt] gave a Dissolved amount of 50 mg/mL.

For `COc1cc(/C=C/C(=O)CC(=O)/C=C/c2ccc(O)c(OC)c2)ccc1O` [Curcumin], the Dissolved amount in data set [1] (solvent: Carvacrol) stood at 20 mg/mL.

Regarding `O=c1oc2c(O)c(O)cc3c(=O)oc4c(O)c(O)cc1c4c23` [Ellagic acid], the Dissolved amount in data set [1] (solvent: Carvacrol) was 60 mg/mL.

Take `CC[C@H]1OC(=O)[C@H](C)[C@@H](O[C@H]2C[C@@](C)(OC)[C@@H](O)[C@H](C)O2)[C@H](C)[C@@H](O[C@@H]2O[C@H](C)C[C@H](N(C)C)[C@H]2O)[C@](C)(O)C[C@@H](C)C(=O)[C@H](C)[C@@H](O)[C@]1(C)O` [Erythromycin]: the Dissolved amount in data set [1] (solvent: Carvacrol) came to 110 mg/mL.

For the molecule `Cl.Cl.Fc1ccc(C(c2ccc(F)cc2)N2CCN(C/C=C/c3ccccc3)CC2)cc1` [Flunarizine*2HCl], the Dissolved amount in data set [1] (solvent: Carvacrol) came out at 60 mg/mL.

On to `CN1C2CCCC1CC(NC(=O)c1nn(C)c3ccccc13)C2` (stereo not drawn) [Granisetron], for which, in data set [1] (solvent: Carvacrol 62.5% Methanol 31.25% 2M NaOH/H2O 6.25%), the Dissolved amount came out at 71.25 mg/mL.

In turn, `O=C(CCCN1CCC(O)(c2ccc(Cl)cc2)CC1)c1ccc(F)cc1` [Haloperidol] yielded a Dissolved amount in data set [1] (solvent: Carvacrol) of 100 mg/mL.

Molecule `CC(=O)N1CCN(c2ccc(OCC3COC(Cn4ccnc4)(c4ccc(Cl)cc4Cl)O3)cc2)CC1` (stereo not drawn) [Ketoconazole] gave a Dissolved amount in data set [1] (solvent: Carvacrol) of 140 mg/mL.

Regarding `CCCCCCCCCCCC(=O)O` [Lauric acid], the Dissolved amount in data set [1] (solvent: Carvacrol) is 500 mg/mL; in data set [1] (setting [4]), 250 mg/mL.

In turn, `CCn1cc(C(=O)O)c(=O)c2ccc(C)nc21` [Nalidixic Acid] showed a Dissolved amount in data set [1] (solvent: Carvacrol) of 108 mg/mL.

`O=C(O)c1ccccc1O` [Salicylic acid] had a Dissolved amount in data set [1] (solvent: Carvacrol/Methanol (1:1), volume proportions) of 240 mg/mL.

With `CN(C/C=C/C#CC(C)(C)C)Cc1cccc2ccccc12` [Terbinafine], the Dissolved amount in data set [1] (solvent: Thymol/Ethanol (1:1)) is 406 mg/mL.

On to `C[C@]12CC[C@H]3[C@@H](CCC4=CC(=O)CC[C@@]43C)[C@@H]1CC[C@@H]2O` [Testosterone], for which the Dissolved amount in data set [1] (solvent: Carvacrol) stood at 220 mg/mL. Also, in data set [2], the “Solubilities in solvents with compounds employed according to the invention, compared with other solvents” value is given as “considerably higher”. For the same molecule, the solubility (commonly the concentration that dissolves in the medium under given conditions) in data set [2] (solvent: 4-Methyl-Anisole) was less than 250 mg/mL; in data set [2] (solvent: 20% 4MS/80% EtOH), 335 mg/mL (≈ 1160 mM); in data set [2] (solvent: 20% (S)-(—)-Limonene/80% Ethanol), 200 mg/mL (≈ 693 mM); in data set [2] (solvent: 20% Anisole/80% EtOH) it was 500 mg/mL (≈ 1730 mM); in data set [2] (solvent: 20% Carvacrol/80% Acetone), 170 mg/mL (≈ 589 mM); in data set [2] (solvent: 20% Carvacrol/80% EtOH) it was 260 mg/mL (≈ 901 mM). In addition, the solubility in data set [2] (solvent: 20% Carvacrol/80% LP (Liqui-Patch)) was found to be 250 mg/mL (≈ 867 mM); in data set [2] (solvent: 20% Gamma-Terpinene/80% ethalol) it was 200 mg/mL (≈ 693 mM); in data set [2] (solvent: 20% Guaiacol/80% EtOH) it was 300 mg/mL (≈ 1040 mM); in data set [2] (solvent: 20% Guaiacol/80% LP (Liqui-Patch)), 270 mg/mL (≈ 936 mM); in data set [2] (solvent: 20% Thymol/80% Acetone), 180 mg/mL (≈ 624 mM); in data set [2] (solvent: 20% Thymol/80% EtOH), 330 mg/mL (≈ 1140 mM). The solubility in data set [2] (solvent: 20% Thymol/80% LP (Liqui-Patch)) is 300 mg/mL (≈ 1040 mM); in data set [2] (solvent: 20% p-Cymene/80% Ethanol), 300 mg/mL (≈ 1040 mM); in data set [2] (solvent: (S)-(—)-Limonene) it was less than 100 mg/mL; in data set [2] (solvent: Acetone), 60 mg/mL (≈ 208 mM); in data set [2] (solvent: Anisole) it was less than 100 mg/mL; in data set [2] (solvent: Ethanol), 90 mg/mL (≈ 312 mM). In addition, the solubility in data set [2] (solvent: Gamma-Terpinene) was less than 100 mg/mL; in data set [2] (solvent: Guaiacol), 270 mg/mL (≈ 936 mM); in data set [2] (solvent: LP (Liqui-Patch)), 190 mg/mL (≈ 659 mM); in data set [2] (solvent: Methyl salicylate (4MS)), less than 100 mg/mL; in data set [2] (solvent: carvacrol) it was 230 mg/mL (≈ 797 mM); in data set [2] (solvent: p-Cymene), less than 100 mg/mL.

`CC1=CC(=O)C(C(C)C)=CC1=O` [Thymoquinone] registered a Dissolved amount in data set [1] (solvent: Carvacrol) greater than 100 mg/mL.

Take `O=c1[nH]c(=O)c2[nH]c(=O)[nH]c2[nH]1` [Uric acid]: the Dissolved amount in data set [1] (solvent: Carvacrol) was less than 20 mg/mL.

Consider `Cc1ccc(C(C)C)cc1O` [carvacrol], for which the “V.C. 30 min. (volatile carvacrol)” value in data set [3] (setting [5]) is reported as 33%; in data set [3] (setting [6]), 45%; in data set [3] (additive Glycerol 10%), 28%; in data set [3] (additive Glycerol 20%) it was 33%; in data set [3] (setting [7]), 26%; in data set [3] (setting [8]) it was 24%. Also, the “V.C. 30 min. (volatile carvacrol)” value in data set [3] (setting [9]) was 29%; in data set [3] (setting [10]), 11%; in data set [3] (setting [11]), 40%; in data set [3] (additive Propylene glycol 10%) it was 40%; in data set [3] (setting [12]), 0%; in data set [3] (additive Propylene glycol 20%), 1%. Also, the figures for the “V.C. 30 min. (volatile carvacrol)” value in data set [3] (additive Water 10%) and in data set [3] (additive Water 20%) were 18% and 0%, respectively. For the same molecule, the “V.C. 3 h (volatile carvacrol)” value stood at 100% in data set [3] (setting [5]); 100% in data set [3] (setting [6]); 96% in data set [3] (additive Glycerol 10%); 88% in data set [3] (additive Glycerol 20%); 46% in data set [3] (setting [7]); 32% in data set [3] (setting [8]). The “V.C. 3 h (volatile carvacrol)” value in data set [3] (setting [9]) is given as 49%; in data set [3] (setting [10]), 24%; in data set [3] (setting [11]), 97%; in data set [3] (additive Propylene glycol 10%) it was 51%; in data set [3] (setting [12]), 46%; in data set [3] (additive Propylene glycol 20%) it was 33%. Also, the “V.C. 3 h (volatile carvacrol)” value in data set [3] (additive Water 10%) and in data set [3] (additive Water 20%) was 94% throughout. Moreover, the Volatility of carvacrol entry in data set [3] (by propylene carbonate, propylene glycol, or isopropyl myristate as additive) is on record as “reduced”.
